The nature of data set [1]: Compound cytotoxicity, XTT-based colorimetric assay. The following applies: human; uninfected MT2 cells, day 4, XTT-based colorimetric assay. The class given is cell-based. As to the method:
Compound cytotoxicity and the corresponding CC50 values were determined using the same protocol as described in the antiviral assay except that uninfected cells were used. Cytotoxicity was assessed on day 4 in uninfected MT2 cells by using a XTT (2,3-bis[2-Methoxy-4-nitro-5-sulfophenyl]-2H-tetrazolium-5-carboxyanilide inner salt)-based colorimetric assay (Sigma-Aldrich, St Louis, Mo.).
Background: Tetrazolium assays rely on reduction of a dye to a coloured formazan, in cell work by metabolically active cells.

For data set [2], the system named is recombinant NL4-3 virus (nef section replaced with Renilla luciferase gene) in MT-2 cells. Description: HIV cell culture assay (antiviral activity, luciferase readout). The following applies: Renilla, NL43. It counts as cell-based. As to the method: HIV cell culture assay—MT-2 cells, 293T cells and the proviral DNA clone of NL4-3 virus were obtained from the NIH AIDS Research and Reference Reagent Program. MT-2 cells were propagated in RPMI 1640 media supplemented with 10% heat inactivated fetal bovine serum (FBS), 100 μg/ml penicillin G and up to 100 units/mL streptomycin. The 293T cells were propagated in DMEM media supplemented with 10% heat inactivated FBS, 100 μg/mL penicillin G and 100 μg/mL streptomycin. A recombinant NL4-3 proviral clone, in which a section of the nef gene was replaced with the Renilla luciferase gene, was used to make the reference virus used in these studies. The recombinant virus was prepared through transfection of the recombinant NL4-3 proviral clone into 293T cells using Transit-293 Transfection Reagent from Mirus Bio LLC (Madison, Wis.). Supernatent was harvested after 2-3 days and the amount of virus present was titered in MT-2 cells using luciferase enzyme activity as a marker by measuring luciferase enzyme activity. Luciferase was quantitated using the EnduRen Live Cell Substrate from Promega (Madison, Wis.). Antiviral activities of compounds toward the recombinant virus were quantified by measuring luciferase activity in MT-2 cells infected for 4-5 days with the recombinant virus in the presence of serial dilutions of the compound.
The 50% effective concentration (EC50) was calculated by using the exponential form of the median effect equation where (Fa)=1/[1+(ED50/drug conc.)^m] (Johnson V A, Byington R T. Infectivity Assay. In Techniques in HIV Research. ed. Aldovini A, Walker B D. 71-76. New York: Stockton Press. 1990). Curve fitting and analysis were performed with ActivityBase XE Runner software version 9.1.0.4 using model 203 (ID Business Solutions, LTD, Guildford, UK).

The structures appear in SMILES notation. pEC50: −log10 of the molar value. Some results are limits rather than exact numbers.

For nine compounds, CC50 and EC50 results are on record in US20220409619A1, “INHIBITORS OF HUMAN IMMUNODEFICIENCY VIRUS REPLICATION” (VIIV HEALTHCARE UK (No. 5) LIMITED, priority 2019, published 2022).

On to `O=C(Cn1nc(C(F)F)c2c1C(F)(F)[C@@H]1C[C@H]21)N[C@@H](Cc1cc(F)cc(F)c1)c1nc(-c2nccc(C(F)F)n2)cc(=O)n1-c1ccc(Cl)c2c(NS(=O)(=O)C3CC3)nn(CC(F)F)c12` (atropisomer, axis not shown; (aR)) [Example 27, N-((S)-1-((1′P)-1′-(4-chloro-3-(cyclopropanesulfonamido)-1-(2,2-difluoroethyl)-1H-indazol-7-yl)-4-(difluoromethyl)-6′-oxo-1′,6′-dihydro-[2,4′-bipyrimidin]-2′-yl)-2-(3,5-difluorophenyl)ethyl)-2-((3bS,4aR)-3-(difluoromethyl)-5,5-difluoro-3b,4,4a,5-tetrahydro-1H-cyclopropa[3,4]cyclopenta[1,2-c]pyrazol-1-yl)acetamide], for which the CC50 (commonly the concentration at which the toxic effect on the cells reaches its halfway point) at 4 days in data set [1] is more than 100 nM. Moreover, the pEC50 – broadly, the negative decadic logarithm of the EC50, by convention in mol/L – in data set [2] is 9.89.

Compound `CCOc1ncc(-c2cc(=O)n(-c3ccc(Cl)c4c(NS(=O)(=O)C5CC5)nn(CC(F)F)c34)c([C@H](Cc3cc(F)cc(F)c3)NC(=O)Cn3nc(C(F)F)c4c3C(F)(F)[C@@H]3C[C@H]43)n2)cn1` (atropisomer, axis not shown; (P)) [Example 49, N-((S)-1-((1P)-1-(4-chloro-3-(cyclopropanesulfonamido)-1-(2,2-difluoroethyl)-1H-indazol-7-yl)-2′-ethoxy-6-oxo-1,6-dihydro-[4,5′-bipyrimidin]-2-yl)-2-(3,5-difluorophenyl)ethyl)-2-((3bS,4aR)-3-(difluoromethyl)-5,5-difluoro-3b,4,4a,5-tetrahydro-1H-cyclopropa[3,4]cyclopenta[1,2-c]pyrazol-1-yl)acetamide] came in with a CC50 at 4 days in data set [1] of more than 100 nM. Besides, the pEC50 in data set [2] is 9.24.

On to `O=C(Cn1nc(C(F)(F)F)c2c1C(F)(F)[C@@H]1C[C@H]21)N[C@@H](Cc1cc(F)cc(F)c1)c1nc(-c2nccc(C(F)(F)F)n2)cc(=O)n1-c1ccc(Cl)c2c(NS(=O)(=O)C3CC3)nn(CC(F)F)c12` [Example 26, N-((S)-1-((1′P)-1′-(4-chloro-3-(cyclopropanesulfonamido)-1-(2,2-difluoroethyl)-1H-indazol-7-yl)-6′-oxo-4-(trifluoromethyl)-1′,6′-dihydro-[2,4′-bipyrimidin]-2′-yl)-2-(3,5-difluorophenyl)ethyl)-2-((3bS,4aR)-5,5-difluoro-3-(trifluoromethyl)-3b,4,4a,5-tetrahydro-1H-cyclopropa[3,4]cyclopenta[1,2-c]pyrazol-1-yl)acetamide], for which, in data set [1], the CC50 at 4 days was more than 100 nM. The pEC50 in data set [2] was 9.96.

In data set [1], `CC(C)(C#Cc1cc(=O)n(-c2ccc(Cl)c3c(NS(=O)(=O)C4CC4)nn(CC(F)F)c23)c([C@H](Cc2cc(F)cc(F)c2)NC(=O)Cn2nc(C(F)(F)F)c3c2C(F)(F)[C@@H]2C[C@H]32)n1)S(C)(=O)=O` (atropisomer, axis not shown; (P)) [Example 36, N-((S)-1-((1P)-1-(4-chloro-3-(cyclopropanesulfonamido)-1-(2,2-difluoroethyl)-1H-indazol-7-yl)-4-(3-methyl-3-(methylsulfonyl)but-1-yn-1-yl)-6-oxo-1,6-dihydropyrimidin-2-yl)-2-(3,5-difluorophenyl)ethyl)-2-((3bS,4aR)-5,5-difluoro-3-(trifluoromethyl)-3b,4,4a,5-tetrahydro-1H-cyclopropa[3,4]cyclopenta[1,2-c]pyrazol-1-yl)acetamide] registered a CC50 at 4 days of more than 100 nM. The pEC50 in data set [2] was 9.80.

The compound `CCOc1ccc(-c2cc(=O)n(-c3ccc(Cl)c4c(NS(C)(=O)=O)nn(C)c34)c([C@H](Cc3cc(F)cc(F)c3)NC(=O)Cn3nc(C(F)F)c4c3C(F)(F)[C@@H]3C[C@H]43)n2)cn1` (atropisomer, axis not shown; (P)) [Example 22, N-((S)-1-((1P)-1-(4-chloro-1-methyl-3-(methylsulfonamido)-1H-indazol-7-yl)-4-(6-ethoxypyridin-3-yl)-6-oxo-1,6-dihydropyrimidin-2-yl)-2-(3,5-difluorophenyl)ethyl)-2-((3bS,4aR)-3-(difluoromethyl)-5,5-difluoro-3b,4,4a,5-tetrahydro-1H-cyclopropa[3,4]cyclopenta[1,2-c]pyrazol-1-yl)acetamide] registered a CC50 at 4 days in data set [1] of more than 100 nM. In data set [2], the pEC50 is 9.34.

Compound `Cn1nc(NS(C)(=O)=O)c2c(Cl)ccc(-n3c([C@@H](Cc4cc(F)cc(F)c4)NC(=O)Cn4nc(C(F)F)c5c4C(F)(F)[C@@H]4C[C@H]54)nc(-c4ccccc4)cc3=O)c21` (atropisomer, axis not shown; (aR)) [Example 2, N-((R)-1-(1-(4-chloro-1-methyl-3-(methylsulfonamido)-1H-indazol-7-yl)-6-oxo-4-phenyl-1,6-dihydropyrimidin-2-yl)-2-(3,5-difluorophenyl)ethyl)-2-((3bS,4aR)-3-(difluoromethyl)-5,5-difluoro-3b,4,4a,5-tetrahydro-1H-cyclopropa[3,4]cyclopenta[1,2-c]pyrazol-1-yl)acetamide] yielded a CC50 at 4 days in data set [1] of more than 500 nM. The pEC50 in data set [2] was 6.72.

For the compound `Cn1nc(NS(C)(=O)=O)c2c(Cl)ccc(-n3c([C@H](Cc4cc(F)cc(F)c4)NC(=O)Cn4nc(C(F)F)c5c4C(F)(F)[C@@H]4C[C@H]54)nc(-c4nccc(C(F)F)n4)cc3=O)c21` (atropisomer, axis not shown; (aR)) [Example 5, N-((S)-1-((1′P)-1′-(4-chloro-1-methyl-3-(methylsulfonamido)-1H-indazol-7-yl)-4-(difluoromethyl)-6′-oxo-1′,6′-dihydro-[2,4′-bipyrimidin]-2′-yl)-2-(3,5-difluorophenyl)ethyl)-2-((3bS,4aR)-3-(difluoromethyl)-5,5-difluoro-3b,4,4a,5-tetrahydro-1H-cyclopropa[3,4]cyclopenta[1,2-c]pyrazol-1-yl)acetamide], the half-maximal cytotoxic concentration (CC50) at 4 days in data set [1] is more than 100 nM. Moreover, the pEC50 in data set [2] was 10.27.

Regarding `Cc1ccnc(-c2cc(=O)n(-c3ccc(Cl)c4c(NS(=O)(=O)C5CC5)nn(CC(F)F)c34)c([C@H](Cc3cc(F)cc(F)c3)NC(=O)Cn3nc(C(F)F)c4c3C(F)(F)[C@@H]3C[C@H]43)n2)n1` (atropisomer, axis not shown; (aR)) [Example 43, N-((S)-1-((1′P)-1′-(4-chloro-3-(cyclopropanesulfonamido)-1-(2,2-difluoroethyl)-1H-indazol-7-yl)-4-methyl-6′-oxo-1′,6′-dihydro-[2,4′-bipyrimidin]-2′-yl)-2-(3,5-difluorophenyl)ethyl)-2-((3bS,4aR)-3-(difluoromethyl)-5,5-difluoro-3b,4,4a,5-tetrahydro-1H-cyclopropa[3,4]cyclopenta[1,2-c]pyrazol-1-yl)acetamide], in data set [1], the CC50 at 4 days was more than 100 nM. In data set [2], the pEC50 is 9.77.

In the case of `O=C(Cn1nc(C(F)F)c2c1C(F)(F)[C@@H]1C[C@H]21)N[C@@H](Cc1cc(F)cc(F)c1)c1nc(-c2ncc(F)cn2)cc(=O)n1-c1ccc(Cl)c2c(NS(=O)(=O)C3CC3)nn(CC(F)F)c12` (atropisomer, axis not shown; (aR)) [Example 30, N-((S)-1-((1′P)-1′-(4-chloro-3-(cyclopropanesulfonamido)-1-(2,2-difluoroethyl)-1H-indazol-7-yl)-5-fluoro-6′-oxo-1′,6′-dihydro-[2,4′-bipyrimidin]-2′-yl)-2-(3,5-difluorophenyl)ethyl)-2-((3bS,4aR)-3-(difluoromethyl)-5,5-difluoro-3b,4,4a,5-tetrahydro-1H-cyclopropa[3,4]cyclopenta[1,2-c]pyrazol-1-yl)acetamide], the CC50 at 4 days in data set [1] is more than 100 nM. In addition, in data set [2], the pEC50 was 9.70.
